US20110105381A2, “Prodrugs of Peripheral Phenolic Opioid Antagonists” (PharmacoFore, Inc., priority 2007, published 2011)
Counter-ions that a name gives are not always drawn.

Assay: not given
Conditions: rat, in vivo

| SMILES | pharmacokinetic profile (e.g. oral bioavailability), N-MTX |
| --- | --- |
| CN(CCN)C(=O)Oc1ccc2c3c1O[C@H]1C(=O)CC[C@@]4(O)[C@@H](C2)[N+](C)(CC2CC2)CC[C@]314.Cl.[Cl-] (stereo partly drawn) [Example 1, (R)—N-Methylnaltrexone 3-(N-methyl-N-(2-aminoethyl))carbamate] | improved pharmacokinetic profile |

Assay: Plasma timecourse of N-MNLX following PO administration to rat
Assay type: in vivo, male Sprague-Dawley rats
Conditions: oral dosing in rats; Cmax and/or persistence of exposure compared with N-MNLX itself
Method: (§1) Plasma Timecourse of Peripheral Phenolic Opioid Antagonists Following PO Administration to Rat
(§2) Oral dosing: The test compounds were dissolved in saline and dosed via oral gavage into jugular vein cannulated male Sprague-Dawley rats. N-MTX and N-MNLX, each at 20 mg/kg, were used as positive controls and the test compounds were dosed at the doses indicated in Tables 1 and 2. At specified time points, blood samples were withdrawn, quenched into methanol, centrifuged at 14000 rpm @ 4° C., and stored at −80° C. until analysis. Samples were quantified via LC/MS/MS using an ABI 3000 triple-quad mass spectrometer.

| SMILES | pharmacokinetic profile (e.g. oral bioavailability), N-MNLX |
| --- | --- |
| C=CC[N+]1(C)CC[C@]23c4c5ccc(OC(=O)N(C)CCN)c4O[C@H]2C(=O)CC[C@@]3(O)[C@H]1C5 (stereo partly shown) [Example 14, N-Methylnaloxone 3-(N-methyl-N-(2-aminoethyl))carbamate] | improved pharmacokinetic profile |
| C=CC[N+]1(C)CC[C@]23c4c5ccc(O)c4O[C@H]2C(=O)CC[C@@]3(O)[C@H]1C5.[Br-] (stereo partly shown) [N-MNLX, N-methylnaloxone, reference compound] | poor pharmacokinetic profiles |

Assay: Plasma timecourse of N-MTX following PO administration to rat
Conditions: oral dosing in rats at the doses of Table 1
Method: as §1, §2

| SMILES | detectable levels of N-MTX |
| --- | --- |
| CN(CCNC(=O)[C@@H](N)Cc1ccc(O)cc1)C(=O)Oc1ccc2c3c1O[C@H]1C(=O)CC[C@@]4(O)C(C2)[N@+](C)(CC2CC2)CC[C@]314 [Example 7, (R)—N-Methylnaltrexone 3-(N-methyl-N-(2-N-tyrosinylamino))ethylcarbamate] | did not afford detectable levels of N-MTX |
| CC(=O)N[C@@H](CCCNC(=N)N)C(=O)NCCN(C)C(=O)Oc1ccc2c3c1O[C@H]1C(=O)CC[C@@]4(O)C(C2)[N@+](C)(CC2CC2)CC[C@]314 [Example 4, (R)—N-Methylnaltrexone 3-(N-methyl-N-(2-N-acetylarginylamino))ethylcarbamate] | did not afford detectable levels of N-MTX |
| C[C@H](N)C(=O)NCCN(C)C(=O)Oc1ccc2c3c1O[C@H]1C(=O)CC[C@@]4(O)C(C2)[N@+](C)(CC2CC2)CC[C@]314 [Example 8, (R)—N-Methylnaltrexone 3-(N-methyl-N-(2-N-alaninylamino))ethylcarbamate] | did not afford detectable levels of N-MTX |
| CN(CCNC(=O)[C@@H](N)CCCCN)C(=O)Oc1ccc2c3c1O[C@H]1C(=O)CC[C@@]4(O)C(C2)[N@+](C)(CC2CC2)CC[C@]314 [Example 9, (R)—N-Methylnaltrexone 3-(N-methyl-N-(2-N-lysinylamino))ethylcarbamate] | did not afford detectable levels of N-MTX |
| C[C@H](NC(=O)CN)C(=O)NCCN(C)C(=O)Oc1ccc2c3c1O[C@H]1C(=O)CC[C@@]4(O)C(C2)[N@+](C)(CC2CC2)CC[C@]314 [Example 12, (R)—N-Methylnaltrexone 3-(N-methyl-N-(2-N-glycinylalaninylamino))-ethylcarbamate] | did not afford detectable levels of N-MTX |
| CN(CCNC(=O)[C@@H](N)CC(N)=O)C(=O)Oc1ccc2c3c1O[C@H]1C(=O)CC[C@@]4(O)C(C2)[N@+](C)(CC2CC2)CC[C@]314 [Example 5, (R)—N-Methylnaltrexone 3-(N-methyl-N-(2-N-asparaginylamino))ethylcarbamate] | did not afford detectable levels of N-MTX |

Same assay, conditions: oral dosing in rats; Cmax and/or persistence of exposure compared with N-MTX itself

| SMILES | pharmacokinetic profile (e.g. oral bioavailability), N-MTX |
| --- | --- |
| CN(CCNC(=O)[C@@H](N)CC(=O)O)C(=O)Oc1ccc2c3c1O[C@H]1C(=O)CC[C@@]4(O)C(C2)[N@+](C)(CC2CC2)CC[C@]314 [Example 6, (R)—N-Methylnaltrexone 3-(N-methyl-N-(2-N-aspartinylamino))ethylcarbamate] | improved pharmacokinetic profile |
| CC(=O)NCC(=O)N[C@@H](CCCNC(=N)N)C(=O)NCCN(C)C(=O)Oc1ccc2c3c1O[C@H]1C(=O)CC[C@@]4(O)C(C2)[N@+](C)(CC2CC2)CC[C@]314 [Example 11, (R)—N-Methylnaltrexone 3-(N-methyl-N-(2-N—(N-acetyl)glycinylarginylamino))-ethylcarbamate] | improved pharmacokinetic profile |
| CC(C)C[C@H](N)C(=O)NCCN(C)C(=O)Oc1ccc2c3c1O[C@H]1C(=O)CC[C@@]4(O)C(C2)[N@+](C)(CC2CC2)CC[C@]314 [Example 2, (R)—N-Methylnaltrexone 3-(N-methyl-N-(2-leucinylamino))ethylcarbamate Hydrochloride] | improved pharmacokinetic profile |
| CN(CCNC(=O)[C@H](Cc1ccccc1)NC(=O)CN)C(=O)Oc1ccc2c3c1O[C@H]1C(=O)CC[C@@]4(O)C(C2)[N@+](C)(CC2CC2)CC[C@]314 [Example 13, (R)—N-Methylnaltrexone 3-(N-methyl-N-(2-N-glycinylphenylalaninylamino))-ethylcarbamate] | improved pharmacokinetic profile |
| C[N@@+]1(CC2CC2)CC[C@]23c4c5ccc(O)c4O[C@H]2C(=O)CC[C@@]3(O)C1C5 [N-MTX, (R)—N-methylnaltrexone, reference compound] | poor pharmacokinetic profiles |
| CN(CCNC(=O)[C@H](CCCNC(=N)N)NC(=O)CN)C(=O)Oc1ccc2c3c1O[C@H]1C(=O)CC[C@@]4(O)C(C2)[N@+](C)(CC2CC2)CC[C@]314 [Example 10, (R)—N-Methylnaltrexone 3-(N-methyl-N-(2-N-glycinylarginylamino))ethylcarbamate] | improved pharmacokinetic profile |
| CN(CCNC(=O)[C@@H](N)CCCNC(=N)N)C(=O)Oc1ccc2c3c1O[C@H]1C(=O)CC[C@@]4(O)C(C2)[N@+](C)(CC2CC2)CC[C@]314 [Example 3, (R)—N-Methylnaltrexone 3-(N-methyl-N-(2-arginylamino))ethylcarbamate] | improved pharmacokinetic profile |
